Among the test systems are MOLT-4 leukemia; SR leukemia; MDA-MB-231 breast; SN12C renal; K-562 leukemia; HT29 colon; OVCAR-3 ovarian; BT-549 breast.
Holding throughout (experiment): growth of human tumour cells (NCI), 48 h

Molecules are shown by their SMILES.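 How tested: cells in 96-well plates exposed to compound for 48 hours at five concentrations. TGI: total growth inhibition.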 Where a SMILES comes first, the peptide text is derived from it. Side-chain parts run from the residue outwards. The star is where a group is joined. Cbz = O=C(OCc1ccccc1)*; Boc = CC(C)(C)OC(=O)*

Turning to `CC(C)C1=C(Cc2ccccc2)C(=O)O/C1=C\c1ccc(O)c(Cl)c1`, the TGI worked out at 28.1 µM in the assay with MOLT-4 leukemia; 26.9 µM with SR leukemia; 29.9 µM in the assay on MDA-MB-231 breast; 30.7 µM with SN12C renal; 38.8 µM with K-562 leukemia; 32.8 µM in the assay with HT29 colon. Moreover, the TGI in the assay on OVCAR-3 ovarian is 28 µM; in the assay with BT-549 breast, 36.7 µM.
Take `CC(C)(C)OC(=O)NC(CCCCNC(=O)CNC(=O)OCc1ccccc1)C(=O)NC(CCCCNC(=O)CNC(=O)OCc1ccccc1)C(=O)NC(CCCCNC(=O)CNC(=O)OCc1ccccc1)C(=O)NC(CCCCNC(=O)CNC(=O)OCc1ccccc1)C(=O)O` (stereo not given) (Boc-K([Gly-Cbz])K([Gly-Cbz])K([Gly-Cbz])K([Gly-Cbz])-OH; configuration not given here): the TGI in the assay on MOLT-4 leukemia, in the assay on SR leukemia, with MDA-MB-231 breast, with SN12C renal, with K-562 leukemia and with HT29 colon was greater than 100 µM in each case. Besides, the TGI in the assay on OVCAR-3 ovarian and in the assay with BT-549 breast was greater than 100 µM in each case.
On to `CC1CCOc2ccc(cc2)C=Nc2ccc(cc2)-c2ccc(cc2)N=Cc2ccc(cc2)OCC1` (stereo not given), for which the TGI with MOLT-4 leukemia, with SR leukemia, in the assay with MDA-MB-231 breast, with SN12C renal, with K-562 leukemia and in the assay on HT29 colon was greater than 100 µM throughout. The TGI in the assay with OVCAR-3 ovarian and in the assay on BT-549 breast was greater than 100 µM throughout.
For the compound `O=C1O[C@H]2C3C4CCC(C4[C@@H]2I)[C@H]13` (stereo not given in full), the TGI in the assay on MOLT-4 leukemia, in the assay with SR leukemia, with MDA-MB-231 breast, in the assay on SN12C renal, in the assay with K-562 leukemia and in the assay on HT29 colon was greater than 100 µM throughout. For the same compound, the TGI in the assay with OVCAR-3 ovarian and with BT-549 breast was greater than 100 µM each time.
Take `OC(C1CCCCCCCCCC1)C(O)C1CCCCCCCCCC1` (stereo not given): the TGI in the assay on MOLT-4 leukemia, with SR leukemia, with MDA-MB-231 breast, in the assay on SN12C renal, with K-562 leukemia and in the assay with HT29 colon was greater than 100 µM throughout. The TGI in the assay with OVCAR-3 ovarian and in the assay on BT-549 breast was greater than 100 µM in each case.
On to `CC(=O)OCC1OC(n2c(N)c(C#N)c(-c3cccc(Cl)c3)c(C#N)c2=S)C(OC(C)=O)C(OC(C)=O)C1OC(C)=O` (stereo not given), for which the TGI with MOLT-4 leukemia was 51.5 µM; in the assay on SR leukemia, 42.8 µM; in the assay on MDA-MB-231 breast, 50.2 µM; in the assay on SN12C renal, greater than 100 µM; in the assay on K-562 leukemia, greater than 100 µM; in the assay with HT29 colon it was 84.5 µM. Moreover, the values for the TGI in the assay on OVCAR-3 ovarian and with BT-549 breast were 58 µM and 70.8 µM, respectively.
As for `COc1ccc(C2C(C#N)=C(S)N(C3OC(CO)C(O)C(O)C3O)C(C)=C2C(C)=O)cc1` (stereo not given), the TGI in the assay with MOLT-4 leukemia, in the assay with SR leukemia, in the assay with MDA-MB-231 breast, in the assay with SN12C renal, with K-562 leukemia and in the assay with HT29 colon was greater than 100 µM each time. In addition, the TGI with OVCAR-3 ovarian and in the assay on BT-549 breast was greater than 100 µM throughout.
As to `CC(=O)N1C(Nc2cccc3nc(C)ccc23)CCN1c1ccccc1` (stereo not given), the TGI in the assay with MOLT-4 leukemia, in the assay with SR leukemia, with MDA-MB-231 breast, in the assay with SN12C renal, in the assay with K-562 leukemia and in the assay on HT29 colon was greater than 10 µM throughout. Moreover, the TGI in the assay on OVCAR-3 ovarian and in the assay with BT-549 breast was greater than 10 µM throughout.
For the compound `CN(/N=C/c1ccc(Cl)cc1)C1=NCCCCN1`, the TGI with MOLT-4 leukemia, in the assay on SR leukemia, in the assay on MDA-MB-231 breast, in the assay on SN12C renal, in the assay with K-562 leukemia and in the assay on HT29 colon was greater than 100 µM in each case. The TGI with OVCAR-3 ovarian and with BT-549 breast was greater than 100 µM each time.
As for `C1=CN2C[n+]3ccc4ccccc4c3N=C2c2ccccc21`, the TGI was determined as 13.3 µM with MOLT-4 leukemia; 4.66 µM in the assay on SR leukemia; 23.6 µM in the assay with MDA-MB-231 breast; 9.52 µM in the assay with SN12C renal; 12.5 µM in the assay on K-562 leukemia; 10.4 µM in the assay with HT29 colon. The TGI with OVCAR-3 ovarian is 3.51 µM; in the assay with BT-549 breast it was 20.9 µM.

The values above are taken from PubChem BioAssay (NCI).
